# Test results: US12115155B2, “Solid dosage form of a nicotine concentration” (Fertin Pharma A/S, priority 2017, dated 2024)
# Details: nicotine concentration increased from 100 microgram/mL to 14,000 microgram/mL
compound,measurement,value
CN1CCCC1c1cccnc1 (stereo not shown) [nicotine],change of permeability of nicotine across the buccal mucosa,decrease of about a factor of two
